According to ChEMBL document CHEMBL5370581, “NMR-Metabolomic Profiling and Genome Mining Drive the Discovery of Cyclic Decapeptides from a Marine Streptomyces” (J Nat Prod, 2023):

Legend:
Type in all cases: functional, cell-based
HEL = assay: Cytotoxicity against HEL cells assessed as reduction in cell viability incubated for 72 hrs by WST assay; settings: Homo sapiens
A549/TR = assay: Cytotoxicity against human A549/Taxol cells assessed as reduction in cell viability incubated for 48 hrs by MTT assay
NCI-H1299 = assay: Cytotoxicity against human NCI-H1299 cells assessed as reduction in cell viability incubated for 48 hrs by MTT assay; settings: NCI-H1299, 48 h
NCI-H1975 = assay: Cytotoxicity against human NCI-H1975 cells assessed as reduction in cell viability incubated for 48 hrs by MTT assay; settings: NCI-H1975, 48 h
K562 = assay: Cytotoxicity against human K562 cells assessed as reduction in cell viability incubated for 72 hrs by SRB assay; settings: K562, 72 h
HCT-116 = assay: Cytotoxicity against human HCT-116 cells assessed as reduction in cell viability incubated for 72 hrs by SRB assay; settings: HCT-116, 72 h
SK-HEP1 = assay: Cytotoxicity against human SK-HEP1 cells assessed as reduction in cell viability incubated for 72 hrs by SRB assay; settings: SK-HEP1, 72 h
SNU-638 = assay: Cytotoxicity against human SNU-638 cells assessed as reduction in cell viability incubated for 72 hrs by SRB assay; settings: SNU-638, 72 h
A549 = assay: Cytotoxicity against human A549 cells assessed as reduction in cell viability incubated for 72 hrs by SRB assay; settings: A549, 72 h
MDA-MB-231 = assay: Cytotoxicity against human MDA-MB-231 cells assessed as reduction in cell viability incubated for 72 hrs by SRB assay; settings: MDA-MB-231, 72 h

| SMILES | IC50 (HEL) | IC50 (A549/TR) | IC50 (NCI-H1299) | IC50 (NCI-H1975) | IC50 (K562) | IC50 (HCT-116) | IC50 (SK-HEP1) | IC50 (SNU-638) | IC50 (A549) | IC50 (MDA-MB-231) |
| --- | --- | --- | --- | --- | --- | --- | --- | --- | --- | --- |
| CC(C)C[C@@H]1NC(=O)[C@H](Cc2ccccc2)N(C)C(=O)[C@@H](C)NC(=O)[C@H](C(C)C)N(C)C(=O)CCNC(=O)[C@H](C)N(C)C(=O)[C@H](C(C)C)NC(=O)[C@H](Cc2c[nH]c3ccccc23)N(C)C(=O)[C@@H]2CCCNN2C(=O)[C@H](CO)N(C)C1=O | 14000 nM | 17000 nM | 11000 nM | 24000 nM |  |  |  |  |  |  |
| CC[C@H](C)[C@@H]1NC(=O)[C@H](Cc2c[nH]c3ccccc23)N(C)C(=O)[C@@H]2CCCNN2C(=O)[C@H](CO)N(C)C(=O)[C@H](CC(C)C)NC(=O)[C@H](Cc2ccccc2)N(C)C(=O)[C@@H](C)NC(=O)[C@H](C(C)C)N(C)C(=O)CCNC(=O)[C@H](C)N(C)C1=O | 13000 nM | 19000 nM | 11000 nM | 8000 nM | 200 nM | 200 nM | 200 nM | 200 nM | 200 nM | 200 nM |
| COc1cccc2c1C(=O)c1c(O)c3c(c(O)c1C2=O)C[C@@](O)(C(=O)CO)C[C@@H]3O[C@H]1C[C@H](N)[C@H](O)[C@H](C)O1 [DOXORUBICIN] | 50 nM | 1600 nM | 1400 nM | 120 nM |  |  |  |  |  |  |
| COc1cc([C@@H]2c3cc4c(cc3[C@@H](O[C@@H]3O[C@@H]5CO[C@@H](C)O[C@H]5[C@H](O)[C@H]3O)[C@H]3COC(=O)[C@H]23)OCO4)cc(OC)c1O [ETOPOSIDE] |  |  |  |  | 400 nM | 400 nM | 400 nM | 400 nM | 400 nM | 400 nM |
